Literature values, collected in patent publication US20040170686A1, “Suspension vehicle for coated drug particles” (priority 2003, published 2004).

System: gram-positive organisms
Details: gram-positive organisms incl. Staphylococcus, Streptococcus, Enterococcus, Bacillus, Corynebacterium

## CC(=O)NC[C@H]1CN(c2ccc(N3CCOCC3)c(F)c2)C(=O)O1 [Linezolid, linezolid]
  antibacterial activity: strong antibacterial activity
